This note sets out measurements from PMC6261997, “Synergistic enzymatic and bioorthogonal reactions for selective prodrug activation in living systems” (Nature Communications, 2018).

Like-named read-outs stand apart in the source and are kept apart here. A value given as a limit tells only on which side of the number the result lay.

The subject of one data set is HUVECs. Description: MTT cell viability / cytotoxicity assay, HUVECs. It counts as cell-based. Particulars: for EC50: Homo sapiens, HUVEC. The procedure:
(§1) Cells were plated in flat-bottom 96-well plates at a density of 3 × 10^3 cells per well. After 12 h of cell attachment, the cell culture medium was replaced with 100 μL of pre-warmed media containing the compounds at different concentrations. After 24–72 h of incubation, cell proliferation was assessed by the MTT assay. A fresh mixture of 10 μL of thiazolyl blue tetrazolium bromide (MTT) and 90 μL of medium were freshly added to each well. After incubation for 4 h, the medium was gently removed. The formazan crystals that formed were dissolved in 110 μL of DMSO, and the absorbance was subsequently measured with a plate reader (Perkin Elmer) at 490 nm. EC50 values were calculated using Origin software. To measure the cytotoxicity of 2, HeLa cells, HUVECs, Saos-2 cells and CCC-HEH-2 cells were incubated with 100 μL of 1–500 μM 2 for 24 h, and then, cell viability was determined. To measure the cytotoxicity of TCO-Dox or Dox, HeLa cells, HUVECs, Saos-2 cells or CCC-HEH-2 cells were incubated with 200 μL of 0.001–10 μM TCO-Dox or Dox for 72 h, and the cell viability was determined. To determine the cytotoxicity of activated Dox, HeLa cells, HUVECs, […], and then, 2 was removed and 200 μL of 0.0001–10 μM TCO-Dox was added for 72 h of incubation, and cell viability was determined. […]
(§2) Prodrug activation efficacy in cells: Cells were plated on flat bottom 96-well plates at a
(§3) density of 3x10^3 cells per well. After 12 h attachment, cells were incubated with 100 µL
(§4) 500 µM of 2 for 6 h before removing 2 and the addition of 200 µL 0.0001-10 µM of […]

Data set [1] can be described thus: In vitro decaging of TCO-Dox by 2 (UPLC-MS). The note with it: TCO-Dox mixed with 2 in 25% acetonitrile in H2O, 37 °C. The procedure: The Tz counterpart prodrug TCO-Dox was prepared according to previously published procedures using the axial tautomer of TCO[27]. After the selection of optimized Tz and TCO, the decaging reactions in our study were further characterized (Fig. 2d). After mixing 2 μL of 10 mM TCO-Dox with 2.5 μL of 20 mM 2 in 25% acetonitrile in H2O at 37 °C, the reaction mixture was analysed by ultra-performance liquid chromatography-mass spectrometry (UPLC-MS) at different time points. […] Similarly, we prepared TCO-caged coumarin (TCO-CMR, see Supplementary Methods for a detailed synthesis protocol)[23]. According to a previously developed fluorescence liberation, the fluorescence of coumarin was restored rapidly in the presence of Tz derivatives (Supplementary Fig. 6).

Data set [2] in a line: UPLC-MS/MS pharmacokinetic analyses in tumour, liver and plasma. Format: in vivo, BALB/c nude mice. The note with it: i.v. 30 mg kg-1 TCO-Dox.
Experimental: For in vivo prodrug activation, mice received an i.v. injection of 50 mg kg^−1 2 and a subsequent 30 mg kg^−1 TCO-Dox after a 2-h interval. After different time intervals, blood samples were collected from the tail veins, and then, the tumours and livers were harvested for UPLC-MS/MS analysis.
UPLC-MS/MS analyses: UPLC-MS/MS metabolomic analyses were performed using a
multiple reaction-monitoring mode (MRM). Data acquisition and processing were performed using LabSolutions version 5 software. Measurements were carried out at
Dox, solvent A consisted of 0.1% formic acid in water and solvent B consisted of 0.1% formic acid in mass spectrometric grade acetonitrile; (2) for compound TCO-Dox, solvent A consisted of 100% water and solvent B consisted of 100% mass spectrometric grade acetonitrile. Injection volume was 2 or 10 L. The mass spectrometer was interfaced with the liquid chromatograph using an electrospray ion source. The nitrogen nebulizing gas flow was set at 10 L min-1 and the drying gas flow at 15 mL min-1. 4500 V were used for the interface voltage. The temperature of the block heater was maintained at 400 °C and the one of the desolvation line at 250 °C. The MRM transitions were
Dox. The collision gas used was argon at 230 kPa. The dwell time was set to 100 msec and the pause time to 3 msec.
Sample preparation: blood samples were collected from the tail vein of mice. Plasma […]
The next data set has as its system CCC-HEH-2 cells. Description: MTT cell viability / cytotoxicity assay, CCC-HEH-2 cells. It counts as cell-based. The note with it: Homo sapiens, read-out: EC50, CCC-HEH-2. The procedure: (§5) Cells were plated in flat-bottom 96-well plates at a density of 3 × 10^3 cells per well. After 12 h of cell attachment, the cell culture medium was replaced with 100 μL of pre-warmed media containing the compounds at different concentrations. After 24–72 h of incubation, cell proliferation was assessed by the MTT assay. A fresh mixture of 10 μL of thiazolyl blue tetrazolium bromide (MTT) and 90 μL of medium were freshly added to each well. After incubation for 4 h, the medium was gently removed. The formazan crystals that formed were dissolved in 110 μL of DMSO, and the absorbance was subsequently measured with a plate reader (Perkin Elmer) at 490 nm. EC50 values were calculated using Origin software. To measure the cytotoxicity of 2, HeLa cells, HUVECs, Saos-2 cells and CCC-HEH-2 cells were incubated with 100 μL of 1–500 μM 2 for 24 h, and then, cell viability was determined. To measure the cytotoxicity of TCO-Dox or Dox, HeLa cells, HUVECs, Saos-2 cells or CCC-HEH-2 cells were incubated with 200 μL of 0.001–10 μM TCO-Dox or Dox for 72 h, and the cell viability was determined. To determine the cytotoxicity of activated Dox, HeLa cells, HUVECs, Saos-2 cells or CCC-HEH-2 cells were pre-incubated with 100 μL of 500 μM 2 for 6 h, and then, 2 was removed and 200 μL of 0.0001–10 μM TCO-Dox was added for 72 h of incubation, and cell viability was determined. […]

In the next data set the test system is HeLa tumours. Kind of data set: Tumour inhibition test, subcutaneous HeLa xenograft. It counts as in vivo, BALB/c nude mice. The protocol:
All animal studies were performed in accordance with the Institutional Animal Use and Care Regulations approved by the National Institutes of Health Clinical Center/Animal Care and Use Committee (NIH CC/ACUC). Athymic female nude mice (5–6 weeks old) were purchased from Beijing Huafukang Bioscience Co., Ltd., and raised in a specific-pathogen-free barrier facility. Tumour-bearing mice were established by subcutaneously injecting a suspension of 10^6 HeLa cells per mouse into the front flank of each nude mouse.
After 14 days, the mice were sacrificed.

The test system of another data set is Saos-2 cells. Kind of data set: MTT cell viability / cytotoxicity assay, Saos-2 cells. It counts as cell-based. The protocol:
as §5
Prodrug activation efficacy in cells: Cells were plated on flat bottom 96-well plates at a density of 3x10^3 cells per well. After 12 h attachment, cells were incubated with 100 µL 500 µM of 2 for 6 h before removing 2 and the addition of 200 µL 0.0001-10 µM of TCO-Dox. Cells were further incubated for 72 h before measuring the viability by the MTT […]
Clonogenic assay of cells in vitro: Clonogenic assay was performed according to the standard protocol.6 2×10^5 attached cells were treated with 500 µM of 2 for 6 h in culture dishes. Cells were then detached, re-suspended in cultural medium and counted accurately. The cell suspension was diluted into the desired seeding concentration and cells were seeded in 6-well plates at a density of 200 cells per well for CCC-HEH-2 and 400 cells per well for HeLa, Saos-2 and HUVECs. After incubation for 10 days, the cultural medium was removed and cells were rinsed carefully with PBS. 2 mL of a mixture of 6.0% (vol/vol) glutaraldehyde and 0.5% (wt/vol) crystal violet was added and kept for 30 min.
The glutaraldehyde crystal violet mixture was removed carefully. The colonies were rinsed with water and dried in normal air at room temperature. The number of the colonies was counted using a stereomicroscope.
When untreated cells are plated as a single-cell suspension at low densities, they will grow to colonies. The plating efficiency (PE) is the ratio of the number of colonies to the […]
(Supplementary Equation 1)
The number of colonies that arise after treatment of cells, expressed in terms of PE, is called the surviving fraction (SF): […]

The subject of a further data set is HeLa cells. Kind of data set: MTT cell viability / cytotoxicity assay, HeLa cells. Format: cell-based. The note with it: for EC50: Homo sapiens, HeLa. The protocol:
as §1, §2, §3, §4

In the case of `COc1cccc2c1C(=O)c1c(O)c3c(c(O)c1C2=O)CC(O)(C(=O)CO)CC3OC1CC(NC(=O)OC2C=CCCCCC2)C(O)C(C)O1` (stereo not shown) [TCO-Dox], the “EC50 higher than that of Dox, HUVECs” value in the data set on HUVECs (72 h) is “more than 40 fold”. The EC50 in the data set on HUVECs (read-out: EC50, HUVECs, 72 h cytotoxicity, MTT, Activated Dox: cells pre-incubated with 500 μM 2 for 6 h, then TCO-Dox 72 h) came to 5810 nM; with HUVECs (read-out: EC50 against HUVECs, cells pre-incubated with 300 μM 2 for 6 h, then TCO-Dox 72 h), 367 nM; in the data set with HUVECs (read-out: EC50 against HUVECs, cells pre-incubated with 500 μM 2 for 6 h, then TCO-Dox 72 h), 272 nM; with CCC-HEH-2 cells, 6.17 µM; with Saos-2 cells (Homo sapiens, SAOS-2, read-out: EC50, Saos-2), 7.57 µM; with HeLa cells (read-out: EC50, HeLa, 72 h cytotoxicity, MTT, Activated Dox: cells pre-incubated with 500 μM 2 for 6 h, then TCO-Dox 72 h), 6790 nM. In addition, the EC50 came out at 1200 nM in the data set on HeLa cells (read-out: EC50 against HeLa cells, cells pre-incubated with 300 μM 2 for 6 h, then TCO-Dox 72 h) and 29.8 nM in the data set on HeLa cells (read-out: EC50 against HeLa cells, cells pre-incubated with 500 μM 2 for 6 h, then TCO-Dox 72 h). In addition, the “time to complete liberation of Dox” value in data set [1] was no more than 2 min. Besides, in data set [2], the “concentration of TCO-Dox in plasma” value is given as “relatively high concentration of TCO-Dox remaining in the blood”. For the same molecule, the “histological examination of dissected tumours (HE staining)” value in the data set on HeLa tumours (after treatment for 14 days) is recorded as “the HeLa cells remained normal”. Besides, the tumour growth result in the data set with HeLa tumours (i.v., three courses (day 0, 3, 6), 50 mg kg^−1 2, 30 mg kg^−1 TCO-Dox, 5 mg kg^−1 Dox, or 50 mg kg^−1 2 then 30 mg kg^−1 TCO-Dox after 2 h) is “rapid growth similar to that observed in the saline control group”. In the data set with Saos-2 cells (ratio of 72 h EC50 values), the “EC50 ratio CCC-HEH-2/Saos-2” value was found to be 0.815. Also, in the data set with Saos-2 cells (ratio of 72 h EC50 values), the “EC50 ratio HUVECs/Saos-2” value turned out to be 0.767. Moreover, in the data set with HeLa cells (72 h), the “EC50 higher than that of Dox, HeLa cells” value is listed as roughly 10 fold. Further, in the data set on HeLa cells (pre-incubation 6 h, then TCO-Dox 72 h), the “EC50 against HeLa cells with 300 μM 2 higher than with 500 μM 2” value is “approximately 40 fold”. Further, the “EC50 ratio CCC-HEH-2/HeLa” value in the data set on HeLa cells (ratio of 72 h EC50 values) came to 0.908. For the same molecule, in the data set on HeLa cells (ratio of 72 h EC50 values), the “EC50 ratio HUVECs/HeLa” value is reported as 0.855.

The term EC50 denotes the midpoint of the concentration-response curve.
